In patent US20240076667A1, “APPLICATION OF ANTISENSE OLIGONUCLEOTIDE TARGETING PBX1 PROMOTER REGION G-QUADRUPLEX IN PREPARATION OF MEDICINE FOR TREATING MELANOMA” (JILIN UNIVERSITY, priority 2022, published 2024):
Entries after “also recorded” stand apart in the source; their conditions may differ.

How the values were obtained:
rG1 = experiment: Thermal stability of PBX1 rG1 with G4-specific ligands; type: binding
PBX1 promoter region = experiment: BG4 chromatin immunoprecipitation (ChIP) followed by qRT-PCR in A375 cells; type: cell-based, human
Procedure: FIGS. 2A-2G are features formed by dG1 and rG1 in vitro and in cells. In (FIG. 2A), Left: CD spectra of WT and Mut dG1, and Right: CD spectra of WT and Mut rG1. CD is circular dichroism. In (FIG. 2B), Left: gel mobility assay of WT and Mut dG1, and Right: gel mobility assay of WT and Mut rG1. In (FIG. 2C), under specified conditions, fluorescence-on assay of NMM in absence of presence of dG1 or rG1, and their G/A mutant. In (FIG. 2D), the occupancy of BG4 in the PBX1 promoter region is measured in A375 cells by BG4 chromatin immunoprecipitation (ChIP), followed by qRT-PCR. In (FIG. 2E), RNA immunoprecipitation (RIP) detection is performed to show the association between BG4 and the PBX1 transcript in A375 cells, followed by qRT-PCR. In (FIG. 2F), the occupancy of BG4 in the PBX1 promoter region is measured, by the BG4 chip, in A375 cells treated with or without PDS and TMPyP4, followed by qRT-PCR. […] SEM represents the standard error of mean. *P< 0.05, **P< 0.01***P< 0.001.
In this embodiment, several methods are further employed to verify the formation of dG1 and rG1. First, circular dichroism (CD) is used to examine the molar ellipticity of dG1 and rG1 sequences (33 nt) and mutants thereof, and the mutants are designed to eliminate G4 formation. […] Both dG1 and rG1 are found to enhance the fluorescence of N N (FIG. 2C). […]

PBX1 = PBX1 mRNA and protein levels by qRT-PCR and western blot in A375 cells; type: cell-based, human; details: for mRNA level of PBX1: qRT-PCR; for protein level of PBX1: western blot, normalized to GAPDH
Procedure: RNA extraction and quantitative RT-PCR detection: total RNA is extracted from cultured cells by using TRIzol (Invitrogen, USA), then is converted into cDNA by SuperScript III First-Strand Synthesis SuperMix (Invitrogen, USA). qRT-PCR detection is performed by using SYBR Green®Mix (Invitrogen, USA) in ABI 7500 (Invitrogen, USA). A relative expression quantity of RNA is calculated by using a comparative CT method.
Immunoblotting: for protein analysis of a whole-cell lysate, cells are lysed with RIPA (CWBIO, Beijing, China) buffer solution. For tumors, liquid nitrogen is first used to pulverize tissues. Then, the lysate is generated on ice with the RIPA (CWBIO, Beijing, China) buffer solution for 20 minutes, and then centrifuged at 4° C., 13000 rpm for 15 minutes. Protein-containing supernatant is transferred to the fresh microcentrifuge tube, and stored at −20° C. (short-term storage) for subsequent use. The protein is quantified by using the BIO-RAD DC protein assay. The total proteins are electrophoresed on SDS-polyacrylamide gels. Then, the proteins are transferred to polyvinylidene difluoride (PVDF) membrane. After incubation with the primary antibody overnight on the shaker at 4° C., the membrane is washed 6 times (5 minutes each time) with TBS-T (Invitrogen, USA). Then, blots are incubated with horseradish peroxidase (IRP)-conjugated secondary antibodies for 60 minutes at RT on the plate shaker. The membrane is cleaned by TBS-T (6×5 minutes). Detection on immunoreactive bands is performed by using SuperSignalmWest Pico chemiluminescence substrate kit (Thermo Fisher Scientific, USA) and Western blotting detection system (BioRad, USA). GAPDH is used as the loading control for western blotting. The intensity levels of the bands are normalized to GAPDH.

A375 cells [1] = experiment: Cell proliferation assay (CCK-8), A375; type: cell-based, human; details: dose-dependent manner
Procedure: Cell proliferation assay: cell viability is determined by the cell counting kit-8 (CCK-8) according to the manufacturer's instructions (Abcam, UK). Cells (2000 cells per well) are incubated in the 96-well plate in triplicate and then added to each well at various time points at the final concentration of 10%, and incubation is continued at 37° C. After 60 minutes, the absorbance of the sample is measured at the wavelength of 450 nm. Data is analyzed using GraphPad Prism software.

A375 cells [2] = experiment: Colony forming assay, A375; type: cell-based, human
Procedure: (§1) Colony forming assay: for the colony forming assay, A375 and B16-F10 cells are seeded on 6-well plates with the density of 500-1000 cells. After two weeks, staining is performed by using 1% crystal violet at room temperature, rinsing is performed with PBS and tap water, and the number of colonies is counted.

B16-F10 cells [3] = experiment: Colony forming assay, B16-F10; type: cell-based, mouse
Procedure: as §1

B16-F10 cells [4] = experiment: Cell scratch assay (migration), B16-F10; type: cell-based, mouse; details: PDS (2 μM), TMPyP4 (5 μM), 24 h
Procedure: Cell scratch assay: the cells are seeded in 12-well plate and grown for 24 hours to 80% confluency. The bare region is created by the tip across the diameter of the dish. After being treated with PDS (2 μM) and TMPyP4 (5 μM) for 24 h, the cells are washed with PBS and photographed under the microscope (Leica, Germany) to evaluate cell migration. Six micrographs are taken for each person.

| Structure (SMILES) | thermal stability of rG1 (rG1) | pull-down of the PBX1 promoter by BG4 (PBX1 promoter region) | mRNA level of PBX1 (PBX1) | protein level of PBX1 (PBX1) | cell viability (activity) measured by CCK8 (A375 cells [1]) | colony formation (A375 cells [2]) | colony formation (B16-F10 cells [3]) | migration (B16-F10 cells [4]) |
| --- | --- | --- | --- | --- | --- | --- | --- | --- |
| NCCOc1cc(C(=O)Nc2cc(OCCN)c3ccccc3n2)nc(C(=O)Nc2cc(OCCN)c3ccccc3n2)c1 [PDS, Pyridostatin] | remarkably enhance | enhance | inhibit; also recorded: remarkably reduces | inhibit; also recorded: remarkably reduces | reduce; also recorded: remarkably reduces | inhibits | inhibits | inhibit |
| C[n+]1ccc(-c2c3nc(c(-c4cc[n+](C)cc4)c4ccc([nH]4)c(-c4cc[n+](C)cc4)c4ccc([nH]4)c(-c4cc[n+](C)cc4)c4nc2C=C4)C=C3)cc1 [TMPyP4] | remarkably enhance | enhance | inhibit; also recorded: remarkably reduces | inhibit; also recorded: remarkably reduces | reduce; also recorded: remarkably reduces | inhibits | inhibits | inhibit |
